In patent US20120201749A1, “NP-1 Antagonists and Their Therapeutic Use” (priority 2009, published 2012):
Values joined by “and” are separate entries in the source; they are usually repeats but may differ in a detail not shown here. Equal values may be shown once.

Experiments:
[1] = system: human non-small-cell lung carcinoma A549 cells; assay: Lung cancer in vivo study, A549 xenografts in nude mice
Experimental: For the efficacy study, human non-small-cell lung carcinoma A549 cells were cultured in growth medium RPMI 1640. The cells at 90% confluence were detached, counted and suspended in PBS to make the final concentration of cells 5×10^7/ml for inoculation.
The compound administration began two weeks after A549 cells were inoculated in female Balb/c nude mice. Compound 58 was dosed intraperitoneally at 80 mg/kg daily for a period of 2 weeks. Tumour volume was monitored by measuring the length and the width of the tumour using an electronic digital caliper (Fisher Scientific) daily for a period of 2 weeks. Tumour volumes were calculated using a formula (length×width^2/2). At the end of the experiment, tumours were dissected and weighed.

[2] = molecular target: NP-1 (Homo sapiens, UniProt O14786); assay: Biotinylated-VEGF-A165 (bt-VEGF-A165) binding to NP-1; details: for inhibition at 3 µM: 3 μM compound, read-out: Screen (% inhibition at 3 μM); for inhibition at 30 µM: 30 μM compound, read-out: Screen (% inhibition at 30 μM)
Method in brief: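 Both formats: compound with bt-VEGF-A165 for 2 h at room temperature, detection via streptavidin-HRP at A450 (ref A595). Cell-based: Ad.NP-1-transfected DU145 cells, 2 nM tracer, nonspecific from 100-fold unlabelled VEGF-A165. Cell-free: NP-1-coated wells (3 μg/ml), 0.25 nM tracer, nonspecific from uncoated wells.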

Sequence of NP-1 (O14786 22-923): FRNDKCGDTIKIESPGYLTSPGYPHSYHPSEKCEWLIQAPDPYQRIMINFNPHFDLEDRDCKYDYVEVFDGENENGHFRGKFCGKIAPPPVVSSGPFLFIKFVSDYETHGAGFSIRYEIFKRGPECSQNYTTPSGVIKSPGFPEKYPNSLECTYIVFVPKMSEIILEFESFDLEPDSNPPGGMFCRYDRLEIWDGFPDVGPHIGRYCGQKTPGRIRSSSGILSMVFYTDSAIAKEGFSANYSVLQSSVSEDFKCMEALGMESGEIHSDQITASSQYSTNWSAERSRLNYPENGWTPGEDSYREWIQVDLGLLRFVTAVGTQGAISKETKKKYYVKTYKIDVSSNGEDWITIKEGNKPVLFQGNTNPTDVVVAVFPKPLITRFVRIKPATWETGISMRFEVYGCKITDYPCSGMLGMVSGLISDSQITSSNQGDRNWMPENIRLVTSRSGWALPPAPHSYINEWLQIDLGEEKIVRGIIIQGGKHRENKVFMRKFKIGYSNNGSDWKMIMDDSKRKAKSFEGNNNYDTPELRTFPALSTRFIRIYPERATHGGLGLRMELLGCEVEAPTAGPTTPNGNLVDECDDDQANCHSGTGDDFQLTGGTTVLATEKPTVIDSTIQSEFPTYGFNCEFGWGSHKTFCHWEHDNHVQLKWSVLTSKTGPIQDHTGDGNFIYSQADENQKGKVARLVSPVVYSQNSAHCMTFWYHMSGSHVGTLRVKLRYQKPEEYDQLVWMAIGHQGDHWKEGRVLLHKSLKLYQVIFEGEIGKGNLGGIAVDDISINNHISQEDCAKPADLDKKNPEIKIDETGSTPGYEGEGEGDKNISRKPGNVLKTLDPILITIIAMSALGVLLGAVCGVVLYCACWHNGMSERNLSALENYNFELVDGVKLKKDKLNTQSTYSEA

N=C(N)NCCC[C@H](NC(=O)c1sccc1NS(=O)(=O)c1cccc(NCc2csc(N3CCNCC3)n2)c1)C(=O)O [Compound 58, (S)-5-guanidino-2-[(3-{3-[(2-piperazin-1-yl-thiazol-4-ylmethyl)-amino]-benzenesulfonylamino}-thiophene-2-carbonyl]-amino]-pentanoic acid]
reduction of the rate of tumour growth ([1]; 80 mg/kg intraperitoneally daily for 2 weeks, A549 tumours, p=0.017 by linear regression test): 52% and 50%
tumour weight reduced by ([1]; 80 mg/kg intraperitoneally daily for 2 weeks, tumours weighed at end of experiment, p=0.04 by Mann Whitney test): 27%
effect on rate of tumour growth (in words) ([1]; preclinical model of lung cancer): significantly reduced the rate of tumour growth
evidence of toxicity ([1]; single daily dose for two weeks, murine model of lung cancer): No evidence of toxicity
IC50 [2]: 0.159 µM
inhibition at 3 µM [2]: 72%
inhibition at 30 µM [2]: 96%

N=C(N)NCCC[C@H](NC(=O)c1sccc1NS(=O)(=O)c1cccc(NCc2cnn(CCN3CCN(c4ccccn4)CC3)c2)c1)C(=O)O [Compound 68]
inhibition at 3 µM [2]: 37%
inhibition at 30 µM [2]: 89%

Cn1cncc1CNCc1ccccc1-c1cc2c(c(S(=O)(=O)Nc3ccsc3C(=O)N[C@@H](CCCNC(=N)N)C(=O)O)c1)OCC2 [Compound 23, (S)-5-Guanidino-2-({3-[5-(2-{[(3-methyl-3H-imidazol-4-ylmethyl)-amino]-methyl}-phenyl)-2,3-dihydro-benzofuran-7-sulfonylamino]-thiophene-2-carbonyl}-amino)-pentanoic acid]
inhibition at 3 µM [2]: 58%
inhibition at 30 µM [2]: 97%

N=C(N)NCCC[C@H](NC(=O)c1sccc1NS(=O)(=O)c1cc(-c2cccc(CN3CCC(N4CCOCC4)CC3)c2)cc2c1OCC2)C(=O)O [Compound 22, (S)-5-Guanidino-2-[(3-{5-[3-(4-morpholin-4-yl-piperidin-1-ylmethyl)-phenyl]-2,3-dihydro-benzofuran-7-sulfonylamino}-thiophene-2-carbonyl)-amino]-pentanoic acid]
inhibition at 3 µM [2]: 70%
inhibition at 30 µM [2]: 98%

N=C(N)NCCC[C@H](NC(=O)c1sccc1NS(=O)(=O)c1cc(-c2ccccc2CNCCc2cn[nH]c2)cc2c1OCC2)C(=O)O [Compound 47, (S)-5-Guanidino-2-({3-[5-(2-{[2-(1H-pyrazol-4-yl)-ethylamino]-methyl}-phenyl)-2,3-dihydro-benzofuran-7-sulfonylamino]-thiophene-2-carbonyl}-amino)-pentanoic acid]
IC50 [2]: 0.13 µM
inhibition at 3 µM [2]: 86%

CCN(Cc1ccncc1)c1nc(CNc2cccc(S(=O)(=O)Nc3ccsc3C(=O)N[C@@H](CCCNC(=N)N)C(=O)O)c2)cs1 [Compound 73, (S)-2-{[3-(3-{[2-(Ethyl-pyridin-4-ylmethyl-amino)-thiazol-4-ylmethyl]-amino}-benzenesulfonylamino)-thiophene-2-carbonyl]-amino}-5-guanidino-pentanoic acid]
inhibition at 3 µM [2]: 69%

N=C(N)NCCC[C@H](NC(=O)c1sccc1NS(=O)(=O)c1cc(-c2ccccc2CNCc2ccc(N)nc2)cc2c1OCC2)C(=O)O [Compound 39, (S)-2-({3-[5-(2-{[(6-Amino-pyridin-3-ylmethyl)-amino]-methyl}-phenyl)-2,3-dihydro-benzofuran-7-sulfonylamino]-thiophene-2-carbonyl}-amino)-5-guanidino-pentanoic acid]
inhibition at 3 µM [2]: 61%

N=C(N)NCCC[C@H](NC(=O)c1sccc1NS(=O)(=O)c1cccc(NCc2csc(N3CCN(c4cnccn4)CC3)n2)c1)C(=O)O [Compound 74]
inhibition at 3 µM [2]: 55%

N=C(N)NCCC[C@H](NC(=O)c1sccc1NS(=O)(=O)c1cc(-c2cccc(CNCc3ccccn3)c2)cc2c1OCC2)C(=O)O [Compound 31, (S)-5-Guanidino-2-({3-[5-(3-{[(pyridin-2-ylmethyl)-amino]-methyl}-phenyl)-2,3-dihydro-benzofuran-7-sulfonylamino]-thiophene-2-carbonyl}-amino)-pentanoic acid]
IC50 [2]: 0.105 µM
inhibition at 3 µM [2]: 86%
inhibition at 30 µM [2]: 99%

N=C(N)NCCC[C@H](NC(=O)c1sccc1NS(=O)(=O)c1cccc(NCc2csc(N3CCC(N4CCOCC4)CC3)n2)c1)C(=O)O [Compound 60, (S)-5-guanidino-2-{[3-(3-{[2-(4-morpholin-4-yl-piperidin-1-yl)-thiazol-4-ylmethyl]-amino}-benzenesulfonylamino)-thiophene-2-carbonyl]-amino}-pentanoic acid]
IC50 [2]: 0.319 µM
inhibition at 3 µM [2]: 70%
inhibition at 30 µM [2]: 96%

N=C(N)NCCC[C@H](NC(=O)c1sccc1NS(=O)(=O)c1cc(-c2ccccc2CNCc2ccc(O)nc2)cc2c1OCC2)C(=O)O [Compound 49, (S)-5-Guanidino-2-({3-[5-(2-{[(6-hydroxy-pyridin-3-ylmethyl)-amino]-methyl}-phenyl)-2,3-dihydro-benzofuran-7-sulfonylamino]-thiophene-2-carbonyl}-amino)-pentanoic acid]
inhibition at 3 µM [2]: 52%

N=C(N)NCCC[C@H](NC(=O)c1sccc1NS(=O)(=O)c1cccc(NCc2csc(N3CCN(c4nccs4)CC3)n2)c1)C(=O)O [Compound 76, (S)-5-guanidino-2-{[3-(3-{[2-(4-thiazol-2-yl-piperazin-1-yl)-thiazol-4-ylmethyl]-amino}-benzenesulfonylamino)-thiophene-2-carbonyl]-amino}-pentanoic acid]
inhibition at 3 µM [2]: 68%

N=C(N)NCCC[C@H](NC(=O)c1sccc1NS(=O)(=O)c1cc(-c2ccccc2CNCc2cccnc2)cc2c1OCC2)C(=O)O [Compound 9, (S)-5-Guanidino-2-({3-[5-(2-{[(pyridin-3-ylmethyl)-amino]-methyl}-phenyl)-2,3-dihydro-benzofuran-7-sulfonylamino]-thiophene-2-carbonyl}-amino)-pentanoic acid]
IC50 [2]: 3 µM
inhibition at 30 µM [2]: 97%

N=C(N)NCCC[C@H](NC(=O)c1sccc1NS(=O)(=O)c1cc(-c2cccc(CN3CCC(C(=O)O)CC3)c2)cc2c1OCC2)C(=O)O [Compound 3, 1-(3-{7-[2-((S)-1-Carboxy-4-guanidino-butylcarbamoyl)-thiophen-3-ylsulfamoyl]-2,3-dihydro-benzofuran-5-yl}-benzyl)-piperidine-4-carboxylic acid]
IC50 [2]: 0.142 µM
inhibition at 3 µM [2]: 89%

N=C(N)NCCC[C@H](NC(=O)c1sccc1NS(=O)(=O)c1cc(-c2ccccc2CN2CCN(c3cccnc3)CC2)cc2c1OCC2)C(=O)O [Compound 10, (S)-5-Guanidino-2-[(3-{5-[2-(4-pyridin-3-yl-piperazin-1-ylmethyl)-phenyl]-2,3-dihydro-benzofuran-7-sulfonylamino}-thiophene-2-carbonyl)-amino]-pentanoic acid]
IC50 [2]: 2 µM
inhibition at 30 µM [2]: 97%

Cc1[nH]ncc1CCCNCc1ccccc1-c1cc2c(c(S(=O)(=O)Nc3ccsc3C(=O)N[C@@H](CCCNC(=N)N)C(=O)O)c1)OCC2 [Compound 46, (S)-5-Guanidino-2-({3-[5-(2-{[3-(5-methyl-1H-pyrazol-4-yl)-propylamino]-methyl}-phenyl)-2,3-dihydro-benzofuran-7-sulfonylamino]-thiophene-2-carbonyl}-amino)-pentanoic acid]
inhibition at 3 µM [2]: 65%
